The text below walks through data of ChEMBL document CHEMBL1201862, “PubChem BioAssay data set” (2004).

Test systems include RPMI-8226; A498; T47D; SK-MEL-5; MOLT-4; NCI-H226; SK-OV-3; DU-145; DMS-273; SNB-75; SK-MEL-2; UACC-257; SF-295; MCF7; 786-0; NCI-H23; OVCAR-3; BT-549; HOP-62; OVCAR-4.
What all share (experiment): NCI-60 cell line screen, 48 h

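Tested at 5 concentrations; 48 h exposure; 96-well plates; endpoints linearly interpolated, else capped at highest concentration. GI50 is the concentration that inhibits growth by half.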 Active and inactive are the calls of the source. No stated cut-off is given here; in the data, active = GI50 up to about 1.1 µM and inactive = higher. Bounds are passed on as bounds.

As for `COc1ccc(CCNCCCC2c3ccccc3-c3ccccc32)cc1OC`, the GI50 is 6.3 µM (inactive) in the assay with RPMI-8226; 8.02 µM (inactive) with A498; 17.1 µM (inactive) in the assay on T47D; 10.6 µM (inactive) in the assay on SK-MEL-5; 22.6 µM (inactive) in the assay on MOLT-4; 15.4 µM (inactive) in the assay with NCI-H226. The GI50 is 18.9 µM (inactive) in the assay with SK-OV-3; 15.5 µM (inactive) in the assay on DU-145; 7.28 µM (inactive) with DMS-273; 13.5 µM (inactive) in the assay on SNB-75; 6.68 µM (inactive) in the assay on SK-MEL-2; 14.3 µM (inactive) with UACC-257. Also, the GI50 in the assay on SF-295 is 15.6 µM (inactive); in the assay with MCF7, 6.7 µM (inactive); with 786-0 it was 15 µM (inactive); in the assay on NCI-H23, 15 µM (inactive); in the assay with OVCAR-3, 16.7 µM (inactive); with BT-549, 20.4 µM (inactive). In addition, the GI50 in the assay with HOP-62 was 16 µM (inactive); in the assay on OVCAR-4, 15.8 µM (inactive).

Consider `CNc1cccc(-c2cc(O)c3cc4c(cc3n2)OCO4)c1`, for which the GI50 in the assay on RPMI-8226 was 0.358 µM (active); with A498, 0.307 µM (active); in the assay on T47D, 52 µM (inactive); in the assay on SK-MEL-5, 0.0847 µM (active); in the assay on MOLT-4 it was 0.581 µM (active); in the assay on NCI-H226, 0.404 µM (active). For the same compound, the GI50 in the assay on SK-OV-3 is 0.256 µM (active); with DU-145 it was 0.303 µM (active); in the assay with DMS-273, 0.35 µM (active); in the assay with SNB-75 it was 1.8 µM (inactive); in the assay on SK-MEL-2 it was 0.385 µM (active); in the assay with SF-295, 2.28 µM (inactive). Further, the GI50 was 0.293 µM (active) in the assay on MCF7; 0.334 µM (active) with 786-0; 0.436 µM (active) in the assay on NCI-H23; 0.126 µM (active) with OVCAR-3; 0.394 µM (active) in the assay on BT-549; 0.409 µM (active) in the assay with HOP-62. For the same compound, the GI50 in the assay with OVCAR-4 was > 20.7 µM (inactive).

With `N#C/C(=C\c1ccc2[nH]ccc2c1)C(=O)c1ccc(O)c(O)c1`, the GI50 is > 73.5 µM (inactive) with RPMI-8226; > 100 µM (inactive) in the assay with A498; 62.8 µM (inactive) in the assay with T47D; > 75.2 µM (inactive) in the assay on SK-MEL-5; 44.7 µM (inactive) in the assay with MOLT-4; > 71.3 µM (inactive) with NCI-H226. Further, the GI50 in the assay on SK-OV-3 is 59.4 µM (inactive); in the assay on DU-145, 45.7 µM (inactive); in the assay with DMS-273 it was 57.3 µM (inactive); with SNB-75, > 100 µM (inactive); in the assay with SK-MEL-2, > 78.9 µM (inactive); in the assay on UACC-257, > 80.5 µM (inactive). Besides, the GI50 with SF-295 is 61.4 µM (inactive); in the assay on MCF7 it was 34.8 µM (inactive); with 786-0, 43 µM (inactive); in the assay with NCI-H23, > 100 µM (inactive); with OVCAR-3, 9.42 µM (inactive); with BT-549 it was 24.5 µM (inactive). Besides, the GI50 in the assay with HOP-62 is > 52 µM (inactive); in the assay with OVCAR-4 it was > 64.3 µM (inactive).
